Laboratory results taken from patent US10617664B2, “Brain derived PPARα ligands” (Rush University Medical Center, priority 2015, dated 2020).

Target: T1, de novo-synthesized PPARα (Mus musculus, UniProt P23204)
T1 construct: infected with lentiviral particles of full-length PPARα and then immunoprecipitation performed; expressed in transfected cells; host or cells: Ppara-null mouse hippocampal neurons, lentiviral transduction
T1 sequence (P23204 1-468): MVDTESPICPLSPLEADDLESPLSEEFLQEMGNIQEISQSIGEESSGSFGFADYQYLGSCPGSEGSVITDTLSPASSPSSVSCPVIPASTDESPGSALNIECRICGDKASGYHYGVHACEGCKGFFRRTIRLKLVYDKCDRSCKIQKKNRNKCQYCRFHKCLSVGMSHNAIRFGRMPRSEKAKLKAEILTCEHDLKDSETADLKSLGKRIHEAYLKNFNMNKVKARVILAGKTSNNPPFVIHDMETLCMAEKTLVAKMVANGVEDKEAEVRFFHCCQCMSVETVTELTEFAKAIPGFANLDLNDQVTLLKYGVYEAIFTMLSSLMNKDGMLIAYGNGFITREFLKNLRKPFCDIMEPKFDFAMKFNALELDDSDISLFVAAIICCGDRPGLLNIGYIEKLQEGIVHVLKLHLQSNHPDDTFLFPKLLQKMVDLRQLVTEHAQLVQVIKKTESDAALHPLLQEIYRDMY
Experiment: Immunoprecipitation and GC-MS of Ppara-null hippocampal neurons infected with lenti full-length PPARα
Type: binding
Conditions: lenti-FLPara-transduced, not empty lenti-vector
Description: Identification of novel nuclear ligands of PPARα in the hippocampus PPARs are nuclear receptors that require the binding of ligands for activation of gene expression. […] In order to identify these ligands, a gas chromatography mass spectrometric (GCMS) technology was adopted. Briefly, nuclear extracts were prepared form mouse hippocampus, incubated with a GST-tagged PPARα ligand binding domain (LBD), purified with affinity chromatography, reconstituted with chloroform or acetonitrile, and GCMS analyses preformed. (FIG. 1A, FIGS. 7A-C.). […] Therefore, next cultured Ppara-null hippocampal neurons were infected with lentiviral particles of full-length PPARα and then immunoprecipitation performed followed by GCMS analyses (FIG. 1J, FIG. 7G-H). […] The efficiency of gene transduction was measured by immunoblot analyses of cell extract with PPARα antibody (FIG. 7I. In addition, these analyses successfully identified a group of biological ligands of PPARα, which are endogenously produced in the hippocampus. Some of these detected compounds are sulfur-containing unknown compounds such as thiazoles (MW 220-240), thiosemicarbazones (MW 190-200) and thiazolidine esters (MW 250-270) (Table 2). However, these compounds were excluded from this study because of their unknown biosynthetic pathway, relatively poor match-factor (<65), and commercial unavailability. […]

Row | SMILES | binding to de novo-synthesized PPARα (GC-MS)
1 | CCCCCCCCCCCCCCCC(N)=O [HEX, hexadecanamide] | found to be bound
2 | CCCCCCCCC=CCCCCCCCC(N)=O [OCT, 9-octadecenamide] | found to be bound
